Assay results reported in patent US11691969B2, “Pyridazinones as PARP7 inhibtors” (Ribon Therapeutics, Inc., priority 2019, dated 2023).

Target: PARP7 (Homo sapiens (Human), UniProt Q7Z3E1)
Test: TR-FRET assay: displacement of biotinylated Probe A from the TIPARP active site (Enzymatic Assay for Inhibition of PARP7)
Assay type: binding
Details: TIPARP 6 nM, Probe A 2 nM, 25° C.
In short: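 6 nM His-tagged TIPARP and 2 nM biotinylated Probe A preincubated with compound 30 min at 25 °C in HEPES pH 8 buffer, then 4 nM ULight-anti-6×His and 0.25 nM Eu-streptavidin added for 30 min more. 665/615 nm ratio normalised to DMSO and 100 μM reference inhibitor controls; IC50 from 4-parameter fit.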

Sequence of PARP7 (Q7Z3E1 whole entry): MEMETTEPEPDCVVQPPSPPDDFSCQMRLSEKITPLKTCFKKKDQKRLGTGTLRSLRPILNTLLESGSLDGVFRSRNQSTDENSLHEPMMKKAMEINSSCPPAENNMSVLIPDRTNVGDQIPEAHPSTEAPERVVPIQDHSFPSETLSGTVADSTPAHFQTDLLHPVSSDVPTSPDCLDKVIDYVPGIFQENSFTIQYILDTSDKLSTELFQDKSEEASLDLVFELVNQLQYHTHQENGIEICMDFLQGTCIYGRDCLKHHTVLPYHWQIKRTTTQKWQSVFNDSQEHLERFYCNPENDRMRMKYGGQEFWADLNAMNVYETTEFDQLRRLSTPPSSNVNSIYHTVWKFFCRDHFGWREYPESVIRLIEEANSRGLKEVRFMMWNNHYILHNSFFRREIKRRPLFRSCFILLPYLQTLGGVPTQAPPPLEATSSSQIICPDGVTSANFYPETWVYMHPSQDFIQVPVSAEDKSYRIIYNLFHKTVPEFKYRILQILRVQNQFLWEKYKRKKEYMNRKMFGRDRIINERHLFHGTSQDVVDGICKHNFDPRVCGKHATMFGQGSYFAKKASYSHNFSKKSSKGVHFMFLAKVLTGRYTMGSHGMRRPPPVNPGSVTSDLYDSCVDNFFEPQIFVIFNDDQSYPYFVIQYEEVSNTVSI

Question: C[C@@H](CO[C@H]1CCN(C2CCN(c3ncc(C(F)F)cn3)CC2)C1=O)Nc1cn[nH]c(=O)c1C(F)(F)F [Example 15A, 5-(((S)-1-(((S)-1-(1-(5-(difluoromethyl)pyrimidin-2-yl)piperidin-4-yl)-2-oxopyrrolidin-3-yl)oxy)propan-2-yl)amino)-4-(trifluoromethyl)pyridazin-3(2H)-one] was tested. Which IC50 did it give?
Answer: 100 to 1000 nM

Question: With C[C@@H](COCC(=O)N(C)C1CCN(c2cnc(C(F)(F)F)cn2)CC1)Nc1cn[nH]c(=O)c1C(F)(F)F [Example 4, (S)—N-methyl-2-(2-(6-oxo-5-(trifluoromethyl)-1,6-dihydropyridazin-4-ylamino)propoxy)-N-(1-(5-(trifluoromethyl)pyrazin-2-yl)piperidin-4-yl)acetamide] as the compound, how does the IC50 read?
Answer: < 100 nM

Question: For C[C@@H](CO[C@H]1CCCN(C2CCN(c3ncc(C(F)(F)F)cn3)CC2)C1=O)Nc1cn[nH]c(=O)c1C(F)(F)F [Example 34A, (S)-3-((S)-2-((6-oxo-5-(trifluoromethyl)-1,6-dihydropyridazin-4-yl)amino)propoCyxy)-1′-(5-(trifluoromethyl)pyrimidin-2-yl)-[1,4′-bipiperidin]-2-one], which IC50 is on record?
Answer: < 100 nM

Question: For C[C@@H](CO[C@@H]1CCN([C@@H]2CCN(c3ncc(C(F)(F)F)cn3)C[C@H]2O)C1=O)Nc1cn[nH]c(=O)c1C(F)(F)F [Example 57, 5-(((S)-1-(((R)-1-((3R,4R)-3-hydroxy-1-(5-(trifluoromethyl)pyrimidin-2-yl)piperidin-4-yl)-2-oxopyrrolidin-3-yl)oxy)propan-2-yl)amino)-4-(trifluoromethyl)pyridazin-3(2H)-one], which IC50 is on record?
Answer: < 100 nM

Question: Which IC50 does the source give for C[C@@H](CO[C@H]1C(=O)N(C2CCN(c3ncc(C(F)(F)F)cn3)CC2)CC1(C)C)Nc1cn[nH]c(=O)c1C(F)(F)F [Example 35B, 5-(((S)-1-(((R)-4,4-dimethyl-2-oxo-1-(1-(5-(trifluoromethyl)pyrimidin-2-yl)piperidin-4-yl)pyrrolidin-3-yl)oxy)propan-2-yl)amino)-4-(trifluoromethyl)pyridazin-3(2H)-one] here?
Answer: < 100 nM

Question: How did the IC50 turn out when Cc1cnc(N2CCC(N3CC[C@@H](OC[C@H](C)Nc4cn[nH]c(=O)c4C(F)(F)F)C3=O)CC2)nc1 [Example 44, 5-(((S)-1-(((R)-1-(1-(5-methylpyrimidin-2-yl)piperidin-4-yl)-2-oxopyrrolidin-3-yl)oxy)propan-2-yl)amino)-4-(trifluoromethyl)pyridazin-3(2H)-one] was run?
Answer: < 100 nM

Question: How did the IC50 turn out when C[C@@H](COCC(=O)N(C)C1CN(c2ncc(C(F)(F)F)cn2)C1)Nc1cn[nH]c(=O)c1C(F)(F)F [Example 5, (S)—N-methyl-2-(2-(6-oxo-5-(trifluoromethyl)-1,6-dihydropyridazin-4-ylamino)propoxy)-N-(1-(5-(trifluoromethyl)pyrimidin-2-yl)azetidin-3-yl)acetamide] was run?
Answer: < 100 nM

Question: COC[C@@H](COCC(=O)N(C)C1CCN(c2ncc(C(F)(F)F)cn2)CC1)Nc1cn[nH]c(=O)c1C(F)(F)F [Example 9, (S)-2-(3-methoxy-2-((6-oxo-5-(trifluoromethyl)-1,6-dihydropyridazin-4-yl)amino)propoxy)-N-methyl-N-(1-(5-(trifluoromethyl)pyrimidin-2-yl)piperidin-4-yl)acetamide] was tested. Which IC50 did it give?
Answer: < 100 nM

Question: Which IC50 does the source give for C[C@H](CN[C@@H]1CCN(C2CCN(c3ncc(C(F)(F)F)cn3)CC2)C1=O)Nc1cn[nH]c(=O)c1C(F)(F)F (single isomer, unassigned) [Example 26D] here?
Answer: 100 to 1000 nM

Question: How did the IC50 turn out when C[C@@H](CO[C@@H]1CCN([C@H]2[C@@H]3CN(c4ncc(C(F)(F)F)cn4)C[C@@H]32)C1=O)Nc1cn[nH]c(=O)c1C(F)(F)F [Example 43, 5-(((S)-1-(((R)-2-oxo-1-((1R,5S,6s)-3-(5-(trifluoromethyl)pyrimidin-2-yl)-3-azabicyclo[3.1.0]hexan-6-yl)pyrrolidin-3-yl)oxy)propan-2-yl)amino)-4-(trifluoromethyl)pyridazin-3(2H)-one] was run?
Answer: < 100 nM

Question: How did the IC50 turn out when C[C@@H](CO[C@H]1CCN(C2CCN(c3cnc(C(F)F)cn3)CC2)C1=O)Nc1cn[nH]c(=O)c1C(F)(F)F [Example 22A, 5-(((S)-1-(((S)-1-(1-(5-(difluoromethyl)pyrazin-2-yl)piperidin-4-yl)-2-oxopyrrolidin-3-yl)oxy)propan-2-yl)amino)-4-(trifluoromethyl)pyridazin-3(2H)-one] was run?
Answer: 100 to 1000 nM

Question: With C[C@@H](CO[C@@H]1CCN(C2CCN(c3cnc(C(F)(F)F)cn3)CC2)C1=O)Oc1cn[nH]c(=O)c1Br [Example 46B, 4-bromo-5-(((S)-1-(((R)-2-oxo-1-(1-(5-(trifluoromethyl)pyrazin-2-yl)piperidin-4-yl)pyrrolidin-3-yl)oxy)propan-2-yl)oxy)pyridazin-3(2H)-one] as the compound, how does the IC50 read?
Answer: < 100 nM

Question: C[C@@H](CO[C@@H]1CCN(C2CCN(c3ccc(C#N)cn3)CC2)C1=O)Oc1cn[nH]c(=O)c1Br [Example 48A] was tested. Which IC50 did it give?
Answer: < 100 nM

Question: COC[C@@H](CO[C@H]1CCN(C2CCN(c3ccc(C#N)cn3)CC2)C1=O)Oc1cn[nH]c(=O)c1Br [Example 55A, 6-(4-((S)-3-((S)-2-((5-bromo-6-oxo-1,6-dihydropyridazin-4-yl)oxy)-3-methoxypropoxy)-2-oxopyrrolidin-1-yl)piperidin-1-yl)nicotinonitrile] was tested. Which IC50 did it give?
Answer: ≥ 1000 nM

Question: How did the IC50 turn out when C[C@@H](COCC(=O)N[C@H]1CCN(c2ncc(C(F)(F)F)cn2)C[C@@H]1O)Nc1cn[nH]c(=O)c1C(F)(F)F (single isomer, unassigned) [Example 33B] was run?
Answer: < 100 nM

Question: C[C@@H](CO[C@H]1CCN(C2CCN(c3ccc(C#N)cn3)CC2)C1=O)Oc1cn[nH]c(=O)c1Br [Example 48B] was tested. Which IC50 did it give?
Answer: < 100 nM

Question: How did the IC50 turn out when CN(C(=O)COC[C@@H]1CCN1c1cn[nH]c(=O)c1C(F)(F)F)C1CCN(c2ncc(C(F)(F)F)cn2)CC1 [Example 8, (S)—N-methyl-2-((1-(6-oxo-5-(trifluoromethyl)-1,6-dihydropyridazin-4-yl)azetidin-2-yl)methoxy)-N-(1-(5-(trifluoromethyl)pyrimidin-2-yl)piperidin-4-yl)acetamide] was run?
Answer: < 100 nM

System: NCI-H1373 cells
Test: Tumor growth in human lung cancer model NCI-H1373 (subcutaneous xenograft)
Assay type: in vivo
Details: 100 mg/kg PO QD*28 days, NCI-H1373 tumors in CB-17 SCID mice, compared to vehicle (50% Labrasol)
Source text: Example B. PARP7 Inhibitors' Affect on Tumor Growth in Human Lung Cancer Models NCI-H1373
In this study, CB-17 SCID mice were inoculated subcutaneously at the right flank with NCI-H1373 cells for tumor development. Six days after tumor inoculation, 20 mice with tumor size ranging from 105-160 mm^3 (average tumor size 132 mm^3) were selected and assigned into 2 groups using stratified randomization with 10 mice in each group based upon their tumor volumes. The treatments were started from the next day post randomization (defined randomization day as day 0), and the mice were treated with vehicle (50% Labrasol), the compound of Example 57 (100 mg/kg PO. QD*28 days). The tumor sizes were measured three times per week during the treatment. The entire study was terminated on day 28.
Mean tumor volume and SEM were plotted (FIG. 1). Statistical significance, calculated using two-way ANOVA combined with Bonferroni post-test in which treatment group was compared to vehicle control, is indicated by an asterisk.

Question: C[C@@H](CO[C@@H]1CCN([C@@H]2CCN(c3ncc(C(F)(F)F)cn3)C[C@H]2O)C1=O)Nc1cn[nH]c(=O)c1C(F)(F)F [Example 57, 5-(((S)-1-(((R)-1-((3R,4R)-3-hydroxy-1-(5-(trifluoromethyl)pyrimidin-2-yl)piperidin-4-yl)-2-oxopyrrolidin-3-yl)oxy)propan-2-yl)amino)-4-(trifluoromethyl)pyridazin-3(2H)-one] was tested. Which “tumor growth (mean tumor volume)” value did it give?
Answer: significantly reduce tumor growth
